For series [1], the target named is T1, HDAC6 (Homo sapiens, UniProt Q9UBN7).
T1 sequence (Q9UBN7 1-1215): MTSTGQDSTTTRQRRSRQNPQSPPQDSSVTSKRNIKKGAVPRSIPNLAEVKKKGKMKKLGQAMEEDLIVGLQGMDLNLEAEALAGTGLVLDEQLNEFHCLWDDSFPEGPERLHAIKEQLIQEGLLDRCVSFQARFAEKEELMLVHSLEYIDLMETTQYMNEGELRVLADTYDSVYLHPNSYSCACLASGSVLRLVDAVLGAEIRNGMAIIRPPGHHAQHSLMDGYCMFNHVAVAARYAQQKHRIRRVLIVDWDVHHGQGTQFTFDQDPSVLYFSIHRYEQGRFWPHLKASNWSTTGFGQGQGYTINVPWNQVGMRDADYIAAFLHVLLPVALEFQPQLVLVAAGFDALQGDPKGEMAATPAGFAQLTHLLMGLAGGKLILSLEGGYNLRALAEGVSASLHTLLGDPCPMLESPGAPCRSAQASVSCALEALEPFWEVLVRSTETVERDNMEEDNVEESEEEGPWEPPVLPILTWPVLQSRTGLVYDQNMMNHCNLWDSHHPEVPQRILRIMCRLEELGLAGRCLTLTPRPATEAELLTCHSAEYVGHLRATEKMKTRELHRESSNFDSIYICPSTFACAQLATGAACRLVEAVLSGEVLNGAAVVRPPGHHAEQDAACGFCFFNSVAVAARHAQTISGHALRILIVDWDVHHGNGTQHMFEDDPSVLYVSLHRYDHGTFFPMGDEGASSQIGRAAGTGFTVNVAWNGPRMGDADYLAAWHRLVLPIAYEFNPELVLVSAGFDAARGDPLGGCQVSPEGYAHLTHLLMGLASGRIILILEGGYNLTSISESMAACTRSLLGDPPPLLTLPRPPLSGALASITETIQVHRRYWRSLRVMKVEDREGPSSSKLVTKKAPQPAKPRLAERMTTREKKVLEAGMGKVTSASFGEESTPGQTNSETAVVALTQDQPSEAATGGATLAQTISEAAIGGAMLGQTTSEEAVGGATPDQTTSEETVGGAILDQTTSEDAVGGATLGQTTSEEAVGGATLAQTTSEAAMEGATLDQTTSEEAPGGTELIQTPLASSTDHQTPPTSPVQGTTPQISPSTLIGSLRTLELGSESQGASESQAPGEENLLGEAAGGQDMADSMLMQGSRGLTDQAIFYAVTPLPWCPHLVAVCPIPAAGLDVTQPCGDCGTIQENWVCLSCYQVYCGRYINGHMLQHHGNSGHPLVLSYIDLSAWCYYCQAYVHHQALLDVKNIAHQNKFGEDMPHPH
The experiment in a line: Binding kinetics via the Progression Method at HDAC6. The settings on record: progression curves, substrate at five times KM, 37 °C. The series is classed as biochemical.

The target of the next series is HDAC4 (Homo sapiens, UniProt P56524). Description: Preincubation HDAC inhibition assay, HDAC4. The series is classed as biochemical. Particulars: preincubation 1 h at 25 °C.
HDAC4, sequence (P56524 whole entry): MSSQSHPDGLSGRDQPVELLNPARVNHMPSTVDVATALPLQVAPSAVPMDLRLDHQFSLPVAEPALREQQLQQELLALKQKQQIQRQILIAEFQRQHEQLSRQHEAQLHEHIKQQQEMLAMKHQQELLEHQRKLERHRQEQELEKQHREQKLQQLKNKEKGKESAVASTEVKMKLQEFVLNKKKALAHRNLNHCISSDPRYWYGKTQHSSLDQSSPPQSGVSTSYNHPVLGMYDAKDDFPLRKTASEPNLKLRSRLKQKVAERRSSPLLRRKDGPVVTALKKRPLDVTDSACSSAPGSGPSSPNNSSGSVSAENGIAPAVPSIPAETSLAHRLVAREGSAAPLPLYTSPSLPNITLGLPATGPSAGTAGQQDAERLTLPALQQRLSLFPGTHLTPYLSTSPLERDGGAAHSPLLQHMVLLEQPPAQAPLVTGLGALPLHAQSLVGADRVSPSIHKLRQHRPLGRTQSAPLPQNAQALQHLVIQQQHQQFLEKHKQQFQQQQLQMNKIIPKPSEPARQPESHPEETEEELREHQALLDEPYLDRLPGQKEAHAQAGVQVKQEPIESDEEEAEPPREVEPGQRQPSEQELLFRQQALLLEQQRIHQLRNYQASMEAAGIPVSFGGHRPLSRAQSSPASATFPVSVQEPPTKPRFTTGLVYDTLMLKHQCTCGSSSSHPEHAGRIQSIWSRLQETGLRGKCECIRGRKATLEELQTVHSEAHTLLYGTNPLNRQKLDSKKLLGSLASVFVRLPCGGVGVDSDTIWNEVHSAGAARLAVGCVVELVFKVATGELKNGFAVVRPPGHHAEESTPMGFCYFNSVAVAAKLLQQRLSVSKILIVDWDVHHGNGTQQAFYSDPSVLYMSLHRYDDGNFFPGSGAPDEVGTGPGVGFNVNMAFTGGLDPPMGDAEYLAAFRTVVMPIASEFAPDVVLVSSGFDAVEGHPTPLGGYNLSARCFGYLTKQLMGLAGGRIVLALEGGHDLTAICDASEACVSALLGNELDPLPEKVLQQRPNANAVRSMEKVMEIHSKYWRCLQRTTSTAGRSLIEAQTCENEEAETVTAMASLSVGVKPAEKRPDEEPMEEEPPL
For another series, the target named is HDAC1 (Homo sapiens, UniProt Q13547). The experiment in a line: Preincubation HDAC inhibition assay, HDAC1. The format is biochemical. The settings on record: preincubation 1 h at 25 °C.
HDAC1, sequence (Q13547 whole entry): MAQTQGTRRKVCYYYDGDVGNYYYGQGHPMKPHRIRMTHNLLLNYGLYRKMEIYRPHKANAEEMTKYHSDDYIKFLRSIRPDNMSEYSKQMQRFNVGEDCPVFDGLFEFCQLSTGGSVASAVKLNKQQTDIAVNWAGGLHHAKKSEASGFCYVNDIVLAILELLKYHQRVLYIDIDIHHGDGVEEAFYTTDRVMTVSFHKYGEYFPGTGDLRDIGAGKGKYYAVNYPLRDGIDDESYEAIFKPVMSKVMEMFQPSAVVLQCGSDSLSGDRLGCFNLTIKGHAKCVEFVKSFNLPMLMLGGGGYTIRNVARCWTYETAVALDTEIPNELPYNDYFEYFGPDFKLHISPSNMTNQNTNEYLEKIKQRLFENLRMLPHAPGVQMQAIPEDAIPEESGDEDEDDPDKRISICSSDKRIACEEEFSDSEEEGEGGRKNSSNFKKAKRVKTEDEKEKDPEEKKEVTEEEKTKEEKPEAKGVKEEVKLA
Another series concerns the target HDAC2 (Homo sapiens, UniProt Q92769). The experiment in a line: Preincubation HDAC inhibition assay, HDAC2. The format is biochemical. The settings on record: preincubation 1 h at 25 °C.
The nature of series [2]: LC-MS control: inhibitor in size exclusion buffer without enzyme. The format is physicochemical. Particulars: 100 μM inhibitor in size exclusion buffer only (pH 7.5), overnight.
Series [3] has as its target T1, HDAC6. Description: IC50-shift experiments at HDAC6. The series is classed as biochemical. Particulars: preincubation 5, 60 and 120 min.
The target of series [4] is T1, HDAC6. The experiment in a line: Preincubation HDAC inhibition assay, HDAC6. The settings on record: preincubation 1 h at 25 °C. The format is biochemical.

The results in this text go back to publication PMC10591924 (Journal of medicinal chemistry, 2023).

SMILES strings stand for the structures.

HDAC2, sequence (Q92769 whole entry): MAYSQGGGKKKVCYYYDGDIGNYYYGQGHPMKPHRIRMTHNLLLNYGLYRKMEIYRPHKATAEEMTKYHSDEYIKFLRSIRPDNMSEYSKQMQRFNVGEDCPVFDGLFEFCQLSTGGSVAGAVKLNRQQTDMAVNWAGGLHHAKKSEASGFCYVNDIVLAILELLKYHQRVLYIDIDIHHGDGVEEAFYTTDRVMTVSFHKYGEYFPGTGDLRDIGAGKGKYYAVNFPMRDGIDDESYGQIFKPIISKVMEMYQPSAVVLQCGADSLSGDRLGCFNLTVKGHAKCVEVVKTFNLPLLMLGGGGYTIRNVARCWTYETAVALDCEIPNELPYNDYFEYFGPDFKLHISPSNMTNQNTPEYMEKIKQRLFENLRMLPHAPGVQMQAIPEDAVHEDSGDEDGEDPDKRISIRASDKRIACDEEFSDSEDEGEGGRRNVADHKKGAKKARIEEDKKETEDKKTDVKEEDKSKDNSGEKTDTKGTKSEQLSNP

For the molecule `FC(F)c1nnc(-c2cnc(NCc3ccccc3)nc2)o1` [Compound 6, N-Benzyl-5-[5-(difluoromethyl)-1,3,4-oxadiazol-2-yl]pyrimidin-2-amine], the “Slow-binding mechanism from kobs vs inhibitor concentration” value at HDAC6 [1] was “mechanism II”. Besides, the “HDAC4 percent inhibition at 10 μM” value on HDAC4 is “no activity”. Besides, the “HDAC1 percent inhibition at 10 μM” value on HDAC1 is listed as “no activity”. Moreover, the “HDAC2 percent inhibition at 10 μM” value on HDAC2 is reported as “no activity”. Moreover, the “Hydrolysis in the absence of enzyme” value in series [2] is “does not undergo hydrolysis”. In addition, the “Dependence of HDAC6 inhibition on preincubation time” value (“Dependence of HDAC6 inhibition” below) at HDAC6 [3] is on record as “highly dependent on the preincubation time”.
For `COc1ccc(CNc2ncc(-c3nnc(C(F)F)o3)cn2)cc1` [Compound 7, 5-[5-(Difluoromethyl)-1,3,4-oxadiazol-2-yl]-N-(4-methoxybenzyl)pyrimidin-2-amine], the “HDAC4 percent inhibition at 10 μM” value on HDAC4 is “no activity”. Moreover, at HDAC1, the “HDAC1 percent inhibition at 10 μM” value was “no activity”. Besides, at HDAC2, the “HDAC2 percent inhibition at 10 μM” value is recorded as “no activity”.
Take `CCCCN(Cc1ccc(-c2nnc(C(F)F)o2)cc1)C(=O)Nc1ccccc1` [Compound 9, 1-Butyl-1-{4-[5-(difluoromethyl)-1,3,4-oxadiazol-2-yl]benzyl}−3-phenylurea]: at HDAC4, the “HDAC4 percent inhibition at 10 μM” value was “inactive”. Also, at HDAC1, the “HDAC1 percent inhibition at 10 μM” value is “inactive”. Also, on HDAC6 [4], the “HDAC6 percent inhibition at 10 μM” value is “only moderate inhibitory activity”. The “HDAC2 percent inhibition at 10 μM” value at HDAC2 was “inactive”.
Take `CCCCN(Cc1ccc(-c2nnc(C(F)F)o2)cc1)C(=O)c1ccccc1` [Compound 10, N-Butyl-N-{4-[5-(difluoromethyl)-1,3,4-oxadiazol-2-yl]benzyl}benzamide]: the “HDAC4 percent inhibition at 10 μM” value on HDAC4 was “inactive”. In addition, at HDAC1, the “HDAC1 percent inhibition at 10 μM” value was “inactive”. The “HDAC6 percent inhibition at 10 μM” value at HDAC6 [4] is listed as “only moderate inhibitory activity”. At HDAC2, the “HDAC2 percent inhibition at 10 μM” value is “inactive”.
Turning to `CN(C)c1ccc(C(=O)N(CC(=O)NCc2ccccc2)Cc2ccc(-c3nnc(C(F)F)o3)cc2)cc1` [Compound 12, N-[2-(Benzylamino)-2-oxoethyl]-N-{4-[5-(difluoromethyl)-1,3,4-oxadiazol-2-yl]benzyl}−4-(dimethylamino)benzamide], the “HDAC4 percent inhibition at 10 μM” value on HDAC4 was “inactive”. The “HDAC1 percent inhibition at 10 μM” value at HDAC1 was “inactive”. Besides, the “HDAC6 percent inhibition at 10 μM” value at HDAC6 [4] is “only moderate inhibitory activity”. The “HDAC2 percent inhibition at 10 μM” value on HDAC2 is “inactive”.
In the case of `O=C(NNC(=O)C(F)F)c1cnc(NCc2ccccc2)nc1` [Compound 13, 2-(Benzylamino)-N’-(2,2-difluoroacetyl)pyrimidine-5-carbohydrazide], the “HDAC6 percent inhibition at 10 μM” value at HDAC6 [4] is “does not show any inhibitory activity”.
As for `FC(F)(F)c1nnc(-c2cnc(NCc3ccccc3)nc2)o1` [Compound 17, N-Benzyl-5-[5-(trifluoromethyl)-1,3,4-oxadiazol-2-yl]pyrimidin-2-amine], the “Slow-binding mechanism from kobs vs inhibitor concentration” value on HDAC6 [1] was “single-step slow-binding mechanism I”. Besides, the “HDAC4 percent inhibition at 10 μM” value at HDAC4 is recorded as “no inhibition”. For the same molecule, on HDAC1, the “HDAC1 percent inhibition at 10 μM” value is “no inhibition”. Moreover, the “HDAC2 percent inhibition at 10 μM” value at HDAC2 is “no inhibition”. On HDAC6 [3], the “Dependence of HDAC6 inhibition” value is “substantial decrease in the HDAC6 IC50 values upon preincubation”.
With `O=C(CCCCCCC(=O)Nc1ccccc1)NO` [Vorinostat, reference compound], on HDAC6 [3], the “Dependence of HDAC6 inhibition” value was “did not depend on the preincubation time”.
